# Where two headings read alike, the source gives them in different places.
# Experiments:
# [1] = target: human EGFR L858R (NIH/3T3 cells) (Homo sapiens, UniProt P00533, L858R); assay: EGFR target modulation in engineered NIH/3T3 cell lines (phospho-EGFR Y1068 AlphaLISA), EGFR L858R; type: cell-based; details: engineered NIH/3T3 cells, read-out: NIH3T3 IC50 (μM) EGFR (L858R)
# Summary of the method: (§1)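 Read-out is phospho-Y1068 AlphaLISA on cell lysates, with anti-total EGFR at 1 nM final equilibrated 1 h at room temperature. Cells were dosed 3 h with a 12-point 1:3 series starting from a 10 μM stock. Only the WT line received 50 ng/ml EGF for 5 min.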
# H3255 (EGFR L858R) = H3255 (EGFR L858R) (Homo sapiens, UniProt P00533, L858R); assay: EGFR target modulation in H3255 cell line (phospho-EGFR Y1173 ELISA); type: cell-based
# Summary of the method: (§2)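 Readout: luminescent pY1173-EGFR sandwich ELISA on cell lysates. Treatment: compound, 3 h, 37 °C.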
# HEKn (EGFR WT) = HEKn (EGFR WT) (Homo sapiens, UniProt P00533); assay: EGFR target modulation in HEKn (EGFR-WT) cell line (phospho-EGFR Y1173 ELISA); type: cell-based; details: value outside parentheses
# Summary of the method: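 Primary neonatal human keratinocytes (EGFR WT) were exposed to serially diluted compounds for 3 h, then lysed on ice. Phospho-EGFR Y1173 was measured by chemiluminescent sandwich ELISA using anti-EGFR capture.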
# [2] = target: human EGFR L858R/T790M (NIH/3T3 cells) (Homo sapiens, UniProt P00533, L858R/T790M); assay: EGFR target modulation in engineered NIH/3T3 cell lines (phospho-EGFR Y1068 AlphaLISA), EGFR L858R/T790M; type: cell-based; details: engineered NIH/3T3 cells, read-out: NIH3T3 IC50 (μM) EGFR (L858R/T790M)
# Summary of the method: as §1
# [3] = target: human EGFR WT (NIH/3T3 cells, EGF-induced) (Homo sapiens, UniProt P00533); assay: EGFR target modulation in engineered NIH/3T3 cell lines (phospho-EGFR Y1068 AlphaLISA), EGFR WT; type: cell-based; details: engineered NIH/3T3 cells, read-out: NIH3T3 IC50 (μM) EGFR (WT)
# Summary of the method: as §1
# H1975 (EGFR L858/T790M) = H1975 (EGFR L858/T790M) (Homo sapiens, UniProt P00533, L858R/T790M); assay: EGFR target modulation in H1975 cell line (phospho-EGFR Y1173 ELISA); type: cell-based
# Summary of the method: as §2
# EGFR(L858R/T790M) = target: T1, EGFR(L858R/T790M) (Homo sapiens, UniProt P00533, L858R/T790M); assay: EGFR biochemical assay (HTRF), IC50 determinations
# T1 construct: purchased from Carna (GST-a.a. 669-1210)
# Summary of the method: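 HTRF kinase reaction with biotin-TK peptide at room temperature, quenched with EDTA at 60 min and detected with PT66K/SAXL after 1 h. Without preincubation, enzyme starts the reaction with compound, ATP and peptide present. With preincubation, compound, enzyme and peptide sit at room temperature for a set time before ATP is added.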
# [4] = EGFR (L858R/T790M) with 90 min pre-incubation, read-out: IC50 (μM) Column B
# [5] = EGFR (L858R/T790M) with no pre-incubation, read-out: IC50 (μM) Column A
# Chain of H3255 (EGFR L858R) (P00533 25-1210 L858R): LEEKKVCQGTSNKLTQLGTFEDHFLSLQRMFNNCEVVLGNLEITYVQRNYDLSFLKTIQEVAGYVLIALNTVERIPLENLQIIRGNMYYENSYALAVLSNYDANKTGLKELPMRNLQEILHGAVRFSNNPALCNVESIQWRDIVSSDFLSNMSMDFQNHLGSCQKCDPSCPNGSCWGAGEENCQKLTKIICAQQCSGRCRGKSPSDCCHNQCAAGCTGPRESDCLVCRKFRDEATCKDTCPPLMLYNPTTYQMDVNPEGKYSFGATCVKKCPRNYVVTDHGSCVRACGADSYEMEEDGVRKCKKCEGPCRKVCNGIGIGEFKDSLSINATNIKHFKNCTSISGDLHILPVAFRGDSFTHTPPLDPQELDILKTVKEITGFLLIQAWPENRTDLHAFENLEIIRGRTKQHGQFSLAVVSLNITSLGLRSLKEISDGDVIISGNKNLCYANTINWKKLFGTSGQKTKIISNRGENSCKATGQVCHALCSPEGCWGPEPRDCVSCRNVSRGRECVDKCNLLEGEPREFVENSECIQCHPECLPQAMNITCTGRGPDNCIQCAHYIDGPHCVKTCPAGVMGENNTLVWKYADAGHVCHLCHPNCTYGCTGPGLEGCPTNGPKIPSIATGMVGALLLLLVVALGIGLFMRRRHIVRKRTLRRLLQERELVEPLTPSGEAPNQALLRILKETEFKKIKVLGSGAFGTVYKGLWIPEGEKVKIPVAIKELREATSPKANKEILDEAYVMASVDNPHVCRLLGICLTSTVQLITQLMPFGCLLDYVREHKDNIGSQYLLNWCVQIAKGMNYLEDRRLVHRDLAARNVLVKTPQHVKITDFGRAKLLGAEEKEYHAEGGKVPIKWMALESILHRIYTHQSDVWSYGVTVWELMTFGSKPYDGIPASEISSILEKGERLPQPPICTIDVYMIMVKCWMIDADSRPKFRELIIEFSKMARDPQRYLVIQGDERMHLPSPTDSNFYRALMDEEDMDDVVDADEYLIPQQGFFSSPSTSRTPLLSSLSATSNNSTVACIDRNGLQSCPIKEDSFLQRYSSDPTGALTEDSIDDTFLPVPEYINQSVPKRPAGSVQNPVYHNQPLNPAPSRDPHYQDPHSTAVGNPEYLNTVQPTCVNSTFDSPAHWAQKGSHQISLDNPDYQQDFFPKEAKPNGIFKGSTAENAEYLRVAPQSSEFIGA
# Chain of human EGFR L858R (NIH/3T3 cells) (P00533 25-1210 L858R): as above
# T1 sequence (P00533 669-1210 T790M/L858R): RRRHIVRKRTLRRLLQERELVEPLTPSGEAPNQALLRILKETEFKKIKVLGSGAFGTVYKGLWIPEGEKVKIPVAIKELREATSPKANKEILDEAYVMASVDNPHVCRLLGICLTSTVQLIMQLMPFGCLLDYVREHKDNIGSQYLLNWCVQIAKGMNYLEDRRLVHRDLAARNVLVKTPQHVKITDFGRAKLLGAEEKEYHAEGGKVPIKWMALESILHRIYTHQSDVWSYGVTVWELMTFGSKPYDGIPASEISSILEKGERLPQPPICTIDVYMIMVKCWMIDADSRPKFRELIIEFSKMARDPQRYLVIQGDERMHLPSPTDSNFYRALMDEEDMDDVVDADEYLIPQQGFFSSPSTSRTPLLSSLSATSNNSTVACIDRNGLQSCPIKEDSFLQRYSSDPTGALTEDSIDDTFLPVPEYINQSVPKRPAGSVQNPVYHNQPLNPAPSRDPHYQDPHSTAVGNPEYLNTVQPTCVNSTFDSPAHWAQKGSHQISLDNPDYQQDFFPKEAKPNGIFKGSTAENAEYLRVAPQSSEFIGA
# Chain of H1975 (EGFR L858/T790M) (P00533 25-1210 T790M/L858R): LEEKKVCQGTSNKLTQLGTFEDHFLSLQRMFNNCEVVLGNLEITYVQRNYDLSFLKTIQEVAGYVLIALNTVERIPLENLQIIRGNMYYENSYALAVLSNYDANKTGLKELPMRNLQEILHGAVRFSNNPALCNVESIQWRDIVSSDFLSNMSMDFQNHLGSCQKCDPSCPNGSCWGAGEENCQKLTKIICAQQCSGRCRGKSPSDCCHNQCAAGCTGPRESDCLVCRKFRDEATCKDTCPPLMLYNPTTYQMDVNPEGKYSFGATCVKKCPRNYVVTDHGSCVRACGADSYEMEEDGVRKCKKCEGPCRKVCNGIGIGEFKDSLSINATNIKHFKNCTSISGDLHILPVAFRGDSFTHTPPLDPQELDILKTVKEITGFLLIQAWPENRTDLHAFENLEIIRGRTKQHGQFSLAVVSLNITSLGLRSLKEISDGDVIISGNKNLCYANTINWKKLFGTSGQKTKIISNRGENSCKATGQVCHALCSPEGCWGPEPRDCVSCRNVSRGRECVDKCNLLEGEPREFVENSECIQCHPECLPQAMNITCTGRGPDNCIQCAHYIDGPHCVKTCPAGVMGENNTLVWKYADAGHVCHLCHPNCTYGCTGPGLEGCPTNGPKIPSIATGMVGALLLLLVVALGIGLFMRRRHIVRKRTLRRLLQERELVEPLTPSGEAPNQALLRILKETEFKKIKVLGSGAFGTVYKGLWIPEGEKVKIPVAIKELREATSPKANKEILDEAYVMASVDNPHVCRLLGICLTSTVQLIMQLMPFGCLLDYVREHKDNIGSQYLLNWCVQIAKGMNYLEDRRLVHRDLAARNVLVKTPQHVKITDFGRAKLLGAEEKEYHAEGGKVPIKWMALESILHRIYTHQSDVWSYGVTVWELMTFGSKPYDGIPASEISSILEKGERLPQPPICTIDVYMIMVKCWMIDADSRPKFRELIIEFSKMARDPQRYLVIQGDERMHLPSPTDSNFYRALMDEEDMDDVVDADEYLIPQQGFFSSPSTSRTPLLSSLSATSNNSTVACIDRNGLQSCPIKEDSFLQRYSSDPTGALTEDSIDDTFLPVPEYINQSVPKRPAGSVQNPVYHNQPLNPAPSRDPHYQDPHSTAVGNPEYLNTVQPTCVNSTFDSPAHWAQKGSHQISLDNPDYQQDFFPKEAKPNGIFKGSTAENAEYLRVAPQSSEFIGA
Structure (SMILES),IC50 [1] [µM],IC50 (H3255 (EGFR L858R)) [nM],IC50 (HEKn (EGFR WT)) [nM],IC50 [2] [µM],IC50 [3] [µM],IC50 (H1975 (EGFR L858/T790M)) [nM],IC50 (EGFR(L858R/T790M); [4]) [µM],IC50 (EGFR(L858R/T790M); [5]) [µM]
Cc1cccc2nc(NC(=O)c3ccc(F)c(F)c3)n(C3CCCCN(C(=O)/C=C/CN(C)C)C3)c12 (centres unmarked) [Example 17-30],0.003,37,313,0.004,0.167,10,< 0.001,0.005
COc1cc(C(=O)Nc2nc3cccc(C)c3n2[C@@H]2CCCCN(C(=O)/C=C/CN(C)C)C2)cc(Cl)n1 [Example 17-75],0.025,85,3140,0.007,0.218,26,< 0.001,0.017
Cc1cccc2nc(NC(=O)c3ccc(Cl)nc3)n([C@@H]3CCCCN(C(=O)/C=C/CN(C)C)C3)c12 [Example 17-77],0.001,1,24,0.001,0.008,2,< 0.001,0.003
CN(C)C/C=C/C(=O)N1CCCC[C@@H](n2c(NC(=O)c3ccnnc3)nc3cccc(Cl)c32)C1 [Example 17-16],0.015,28,295,0.017,0.282,10,< 0.001,0.007
CC(C)Oc1cccc2nc(NC(=O)c3ccnnc3)n([C@@H]3CCCCN(C(=O)/C=C/CN(C)C)C3)c12 [Example 17-85],0.043,111,2080,0.02,0.6,38,0.003,0.038
COc1cc(C(=O)Nc2nc3cccc(C)c3n2[C@@H]2CCCCN(C(=O)/C=C/CN(C)C)C2)ccn1 [Example 17-71],0.002,3,134,0.002,0.029,2,< 0.001,0.002
Cc1cccc2nc(NC(=O)c3ccc(F)cc3F)n(C3CCCCN(C(=O)/C=C/CN(C)C)C3)c12 (centres unmarked) [Example 17-28],0.004,81,370,0.01,0.283,24,< 0.001,0.014
Cc1cccc2nc(NC(=O)c3ccnc(-c4ccccc4)c3)n([C@@H]3CCCCN(C(=O)/C=C/CN(C)C)C3)c12 [Example 17-76],< 0.001,1,14,< 0.001,0.004,< 1,< 0.001,< 0.001
C=CC(=O)N1CCCC[C@@H](n2c(NC(=O)c3cnnc(C)c3)nc3cc(CN4CCCC4)cc(C)c32)C1 [Example 17-161],0.006,9,269,0.009,0.281,8,< 0.001,0.008
Cc1cccc2nc(NC(=O)c3ccnnc3)n(C3CCCCN(C(=O)/C=C/CN(C)C)C3)c12 (centres unmarked) [Example 17-24],0.005,9,225,0.006,0.094,7,< 0.001,0.006
Cc1cc(C(=O)Nc2nc3cccc(C)c3n2[C@@H]2CCCN(C(=O)/C=C/CN(C)C)C2)ccn1 [Example 17-4],0.062,156,> 10000,0.058,1.4,105,0.006,0.135
Cc1cccc2nc(NC(=O)c3cccc(C(F)(F)F)c3)n(C3CCCCN(C(=O)/C=C/CN(C)C)C3)c12 (centres unmarked) [Example 17-25],0.002,26,251,< 0.001,0.057,2,< 0.001,< 0.002
Cc1cc(C(=O)Nc2nc3cccc(C)c3n2[C@@H]2CCCCN(C(=O)/C=C/CN(C)C)C2)cc(C)n1 [Example 17-72],0.004,12,220,0.001,0.063,3,< 0.001,0.004
COc1ccc2nc(NC(=O)c3ccnnc3)n([C@@H]3CCCCN(C(=O)/C=C/CN(C)C)C3)c2c1Cl [Example 17-2],0.018,170,2340,0.015,0.38,76,0.002,0.018
Cc1cccc2nc(NC(=O)c3ccc(C(F)(F)F)nc3)n(C3CCCCN(C(=O)/C=C/CN(C)C)C3)c12 (centres unmarked) [Example 17-46],0.002,5,212,0.031,0.057,132,0.005,0.092
"Cc1ncc(C(=O)Nc2nc3cccc(C)c3n2C2CCCCN(C(=O)/C=C/CN(C)C)C2)s1 (single isomer, unassigned) [Example 21-8B]",0.001,2,95,0.002,0.016,4,< 0.001,0.006
Cc1cccc2nc(NC(=O)c3cccc(C#N)c3)n(C3CCCCN(C(=O)/C=C/CN(C)C)C3)c12 (centres unmarked) [Example 17-42],0.002,13,206,0.002,0.053,2,< 0.001,< 0.002
C=CC(=O)N1CCCC[C@@H](n2c(NC(=O)c3ccnnc3)nc3cccc(OC(C)C)c32)C1 [Example 17-86],0.03,57,710,0.008,0.45,12,0.004,0.04
Cc1ccccc1-c1cc(C(=O)Nc2nc3cccc(C)c3n2[C@@H]2CCCCN(C(=O)/C=C/CN(C)C)C2)ccn1 [Example 17-80],< 0.001,< 1,4,< 0.001,0.002,< 1,< 0.001,< 0.001
